Test results: ChEMBL document CHEMBL5543084, “Development of cannabidiol derivatives as potent broad-spectrum antibacterial agents with membrane-disruptive mechanism” (Eur J Med Chem, 2024)
Values after ≈ are worked out from the molar mass of the structure shown. Active and inactive are the calls of the source. The rule behind the calls is not given here.

Experiments:
Cell membrane [1] = assay: Induction of cytoplasmic membrane permeabilization in methicilin-resistant Staphylococcus aureus […] assessed as disruption of cell membrane integrity by measuring increase in fluorescence intensity at 1 to 8 times of MIC concentration measured upto 60 mins by SYTOX green dye based fluorescence analysis; type: cell membranes; settings: NCTC 10442
Lipopolysaccharide (LPS) [2] = assay: Displacement of BODIPY-TR-cadaverine from Escherichia coli lipopolysaccharide (LPS) assessed as increase in fluorescence intensity at 1 times MIC measured after 30 mins by fluorescence spectrophotometric analysis; type: subcellular
Staphylococcus aureus [3] = assay: Antibacterial activity against methicillin-resistant Staphylococcus aureus NCTC 10442 assessed as inhibition of bacterial growth incubated for 24 hrs in presence of 1 mM Mg2+ by broth dilution method; type: functional
Klebsiella pneumoniae [4] = assay: Antibacterial activity against Klebsiella pneumoniae ATCC 10031 assessed as inhibition of bacterial growth incubated for 24 hrs in presence of 140 mM Na+ by broth dilution method; type: functional
Lipoteichoic acid [5] = assay: Displacement of BODIPY-TR-cadaverine from Bacillus subtilis lipoteichoic acid (LTA) assessed as increase in fluorescence intensity at 2 times MIC measured after 30 mins by fluorescence spectrophotometric analysis
Staphylococcus aureus [6] = assay: Antibacterial activity against Staphylococcus aureus ATCC 29213 assessed as inhibition of bacterial growth incubated for 24 hrs in presence of 4.5 mM K+ by broth dilution method; type: functional
Staphylococcus aureus [7] = assay: Bactericidal activity against methicillin-resistant Staphylococcus aureus NCTC 10442 assessed as change in cell death associated gene expression by measuring down-regulation of quorum sensing gene DX983_RS05700 gene expression at 4 times of MIC concentration measured after 90 mins incubation by RNA sequencing (RNA-seq) study; type: functional, organism-based
Cell membrane [8] = assay: Induction of cytoplasmic membrane permeabilization in Pseudomonas aeruginosa ATCC 9027 assessed as disruption of cell membrane integrity measured upto 60 mins by measuring increase in fluorescence intensity at 1 to 8 times of MIC concentration by SYTOX green dye based fluorescence analysis; type: cell membranes
Escherichia coli [9] = assay: Bactericidal activity against Escherichia coli ATCC 25922 assessed as change in cell death associated gene expression by measuring down-regulation of LPS export ABC transporter periplasmic-encoding gene (D1792_RS11370) gene expression at 4 times of MIC concentration measured after 90 mins incubation by RNA sequencing (RNA-seq) study; type: functional, organism-based
[10] = Cytotoxicity against mouse fibroblast NCTC clone 929 cells assessed as viable cells at […] microg/ml incubated for 24 hrs by CCK-8 assay; type: toxicity, cell-based; settings: NCTC clone 929 (L929) fibroblast cells, dose 1.56 µg/ml, read-out: Activity
[11] = Cytotoxicity against human HepG2 cells assessed as viable cells at […] microg/ml incubated for 24 hrs by CCK-8 assay; type: toxicity, cell-based; settings: dose 1.56 µg/ml, read-out: Activity
Staphylococcus aureus [12] = assay: Drug resistance, ratio of MIC for Staphylococcus aureus NCTC 10442 after 21 passages to MIC for Staphylococcus aureus NCTC 10442 during first exposure; type: functional
Pseudomonas aeruginosa [13] = assay: Antibacterial activity against Pseudomonas aeruginosa ATCC 9027 assessed as inhibition of bacterial growth incubated for 24 hrs by broth dilution method; type: functional
[14] = Toxicity in C57BL6 mouse assessed as corneal damage treated in eyeballs 4 times in a day for 3 consecutive days; settings: in vivo, topical_or_ocular
Escherichia coli [15] = assay: Bactericidal activity against Escherichia coli ATCC 25922 assessed as down-regulation down of ferroxidase activity (GO:0004322) at 4 times of MIC concentration measured after 90 mins incubation by RNA sequencing (RNA-seq) study; type: functional, organism-based
Escherichia coli [16] = assay: Antibacterial activity against Escherichia coli ATCC 25922 assessed as inhibition of bacterial growth incubated for 24 hrs in presence of 20 uM Fe3+ by broth dilution method; type: functional
Cell membrane [17] = assay: Induction of outer membrane permeabilization in Escherichia coli ATCC 25922 assessed as increase in fluorescence intensity at 1 to 8 times MIC concentration by NPN-dye based fluorescence analysis; type: cell membranes
Staphylococcus aureus [18] = assay: Antibacterial activity against Staphylococcus aureus ATCC 29213 assessed as inhibition of bacterial growth incubated for 24 hrs in presence of 20 uM Fe3+ by broth dilution method; type: functional
Staphylococcus aureus [19] = assay: Antibacterial activity against methicillin-resistant Staphylococcus aureus N315 assessed as inhibition of bacterial growth incubated for 24 hrs by broth dilution method; type: functional
Staphylococcus aureus [20] = assay: Antibacterial activity against Staphylococcus aureus ATCC 29213 assessed as inhibition of bacterial growth incubated for 24 hrs in presence of 2.5 mM Ca2+ by broth dilution method; type: functional
Staphylococcus aureus [21] = assay: Bactericidal activity against methicillin-resistant Staphylococcus aureus NCTC 10442 assessed as bacterial killing at 8 time of MIC concentration incubated for 1 hr by time-kill assay relative to control; type: functional
Klebsiella pneumoniae [22] = assay: Antibacterial activity against Klebsiella pneumoniae ATCC 10031 assessed as inhibition of bacterial growth incubated for 24 hrs in presence of 4.5 mM K+ by broth dilution method; type: functional
Acinetobacter baumannii = assay: Antibacterial activity against Acinetobacter baumannii R2889 assessed as inhibition of bacterial growth incubated for 24 hrs by broth dilution method; type: functional
Pseudomonas aeruginosa [23] = assay: In vivo antibacterial activity against Pseudomonas aeruginosa ATCC 9027 infected C57BL6 mouse corneal infection model assessed as reduction in bacterial burden at 3 mg/ml, TOP 4 times in a day for 2 consecutive days; type: functional; settings: time 2 day
Lipopolysaccharide (LPS) [24] = assay: Displacement of BODIPY-TR-cadaverine from Escherichia coli lipopolysaccharide (LPS) assessed as increase in fluorescence intensity by fluorescence spectrophotometric analysis; type: subcellular
Staphylococcus aureus [25] = assay: Bactericidal activity against methicillin-resistant Staphylococcus aureus NCTC 10442 assessed as down-regulation of biological processes related gene expression by measuring glutamate metabolic process (GO:0006536) at 4 times of MIC concentration measured after 90 mins incubation by RNA sequencing (RNA-seq) study; type: functional, organism-based
Escherichia coli [26] = assay: Bactericidal activity against Escherichia coli ATCC 25922 assessed as down-regulation of intracellular sequestering of iron ion (GO:0006880) at 4 times of MIC concentration measured after 90 mins incubation by RNA sequencing (RNA-seq) study; type: functional, organism-based
Lipoteichoic acid [27] = assay: Displacement of BODIPY-TR-cadaverine from Bacillus subtilis lipoteichoic acid (LTA) assessed as increase in fluorescence intensity at 4 times MIC measured after 30 mins by fluorescence spectrophotometric analysis
Staphylococcus aureus [28] = assay: Antibacterial activity against methicillin-resistant Staphylococcus aureus NCTC 10442 assessed as inhibition of bacterial growth incubated for 24 hrs in presence of 19 uM Zn2+ by broth dilution method; type: functional
Staphylococcus aureus [29] = assay: In vivo antibacterial activity against Staphylococcus aureus ATCC 29213 infected C57BL6 mouse corneal infection model assessed as reduction in bacterial burden at 3 mg/ml, TOP 4 times in a day for 3 consecutive days; type: functional; settings: time 3 day
Staphylococcus aureus [30] = assay: Antibacterial activity against Staphylococcus aureus ATCC 29213 assessed as inhibition of bacterial growth incubated for 24 hrs in presence of 19 uM Zn2+ by broth dilution method; type: functional
Staphylococcus aureus [31] = assay: Bactericidal activity against methicillin-resistant Staphylococcus aureus NCTC 10442 assessed as up-regulation of molecular functions related gene expression by measuring uracil DNA N-glycosylase activity (GO:0004844) at 4 times of MIC concentration measured after 90 mins incubation by RNA sequencing (RNA-seq) study; type: functional, organism-based
[32] = Cytotoxicity against human HepG2 cells assessed as viable cells at 12.5 microg/ml incubated for 24 hrs by CCK-8 assay; type: toxicity, cell-based; settings: at 12.5 µg/mL, read-out: Activity
Staphylococcus aureus [33] = assay: Bactericidal activity against methicillin-resistant Staphylococcus aureus NCTC 10442 assessed as up regulation of alanine/aspartate and glutamate metabolism gene expression at 4 times of MIC concentration measured after 90 mins incubation by RNA sequencing (RNA-seq) study; type: functional, organism-based

Structure (SMILES): C=C(C)[C@@H]1CCC(C)=C[C@H]1c1c(OCCCNC(=N)N)cc(CCCCC)cc1OCCCNC(=N)N
- Activity (Cell membrane [1]): Active
- Activity (Lipopolysaccharide (LPS) [2]): 27.7%
- MIC (Staphylococcus aureus [3]): 0.39 µg/mL
- MIC (Klebsiella pneumoniae [4]): 3.12 µg/mL
- Activity (Lipoteichoic acid [5]): 19.8%
- MIC (Staphylococcus aureus [6]): 0.78 µg/mL
- Activity (Staphylococcus aureus [7]): Active
- Activity (Cell membrane [8]): Active
- Activity (Escherichia coli [9]): Active
- viability at 24 h, 1.56 microg/ml [10]: 94%
- viability at 24 h, 1.56 microg/ml [11]: 113%
- Ratio (Staphylococcus aureus [12]): 4
- MIC (Pseudomonas aeruginosa [13]): 6.25 µg/mL (≈ 12.2 µM)
- Activity [14]: Non-Toxic
- Activity (Escherichia coli [15]): Active
- MIC (Escherichia coli [16]): 1.56 µg/mL
- Activity (Cell membrane [17]): Dose-Dependent Effect
- MIC (Staphylococcus aureus [18]): 0.39 µg/mL
- MIC (Staphylococcus aureus [19]): 0.39 µg/mL (≈ 0.761 µM)
- MIC (Staphylococcus aureus [20]): 1.56 µg/mL
- inhibition (INH) (Staphylococcus aureus [21]): 100%
- MIC (Klebsiella pneumoniae [22]): 6.25 µg/mL
- MIC (Acinetobacter baumannii): 3.12 µg/mL (≈ 6.09 µM)
- Activity (Pseudomonas aeruginosa [23]): 6.41 log10FFU/ml
- Activity (Lipopolysaccharide (LPS) [24]): Dose-Dependent Effect
- Activity (Staphylococcus aureus [25]): Active
- Activity (Escherichia coli [26]): Active
- Activity (Lipoteichoic acid [27]): 33.7%
- MIC (Staphylococcus aureus [28]): 0.39 µg/mL
- Activity (Staphylococcus aureus [29]): 6.99 log10FFU/ml
- MIC (Staphylococcus aureus [30]): 0.78 µg/mL
- Activity (Staphylococcus aureus [31]): Active
- viability at 24 h, 12.5 microg/ml [32]: 91.3%
- Activity (Staphylococcus aureus [33]): Active
